In ChEMBL document CHEMBL5584226, “α-Fluorination of tropane compounds and its impact on physicochemical and ADME properties” (Bioorg Med Chem Lett, 2024):
In brackets after ≈: the same amount, converted by molar mass.

Experiments:
[1] = Permeability of the compound by PAMPA method; format: ADME; conditions: read-out: permeability
[2] = Aqueous solubility of the compound in JP1 at pH 1.2; format: physicochemical; conditions: JP1, pH 1.2
[3] = Aqueous solubility of the compound in PBS buffer at pH 7.4; format: physicochemical
[4] = Microsomal stability in human liver microsomes assessed as parent compound remaining measured after 15 mins; format: ADME, Microsome; conditions: read-out: Stability
P-gp (ABCB1) = P-gp (ABCB1) (Homo sapiens, UniProt P08183); experiment: Substrate activity at P-gp (unknown origin) assessed as efflux ratio; format: ADME; conditions: not told
Sequence of P-gp (ABCB1) (P08183 whole entry): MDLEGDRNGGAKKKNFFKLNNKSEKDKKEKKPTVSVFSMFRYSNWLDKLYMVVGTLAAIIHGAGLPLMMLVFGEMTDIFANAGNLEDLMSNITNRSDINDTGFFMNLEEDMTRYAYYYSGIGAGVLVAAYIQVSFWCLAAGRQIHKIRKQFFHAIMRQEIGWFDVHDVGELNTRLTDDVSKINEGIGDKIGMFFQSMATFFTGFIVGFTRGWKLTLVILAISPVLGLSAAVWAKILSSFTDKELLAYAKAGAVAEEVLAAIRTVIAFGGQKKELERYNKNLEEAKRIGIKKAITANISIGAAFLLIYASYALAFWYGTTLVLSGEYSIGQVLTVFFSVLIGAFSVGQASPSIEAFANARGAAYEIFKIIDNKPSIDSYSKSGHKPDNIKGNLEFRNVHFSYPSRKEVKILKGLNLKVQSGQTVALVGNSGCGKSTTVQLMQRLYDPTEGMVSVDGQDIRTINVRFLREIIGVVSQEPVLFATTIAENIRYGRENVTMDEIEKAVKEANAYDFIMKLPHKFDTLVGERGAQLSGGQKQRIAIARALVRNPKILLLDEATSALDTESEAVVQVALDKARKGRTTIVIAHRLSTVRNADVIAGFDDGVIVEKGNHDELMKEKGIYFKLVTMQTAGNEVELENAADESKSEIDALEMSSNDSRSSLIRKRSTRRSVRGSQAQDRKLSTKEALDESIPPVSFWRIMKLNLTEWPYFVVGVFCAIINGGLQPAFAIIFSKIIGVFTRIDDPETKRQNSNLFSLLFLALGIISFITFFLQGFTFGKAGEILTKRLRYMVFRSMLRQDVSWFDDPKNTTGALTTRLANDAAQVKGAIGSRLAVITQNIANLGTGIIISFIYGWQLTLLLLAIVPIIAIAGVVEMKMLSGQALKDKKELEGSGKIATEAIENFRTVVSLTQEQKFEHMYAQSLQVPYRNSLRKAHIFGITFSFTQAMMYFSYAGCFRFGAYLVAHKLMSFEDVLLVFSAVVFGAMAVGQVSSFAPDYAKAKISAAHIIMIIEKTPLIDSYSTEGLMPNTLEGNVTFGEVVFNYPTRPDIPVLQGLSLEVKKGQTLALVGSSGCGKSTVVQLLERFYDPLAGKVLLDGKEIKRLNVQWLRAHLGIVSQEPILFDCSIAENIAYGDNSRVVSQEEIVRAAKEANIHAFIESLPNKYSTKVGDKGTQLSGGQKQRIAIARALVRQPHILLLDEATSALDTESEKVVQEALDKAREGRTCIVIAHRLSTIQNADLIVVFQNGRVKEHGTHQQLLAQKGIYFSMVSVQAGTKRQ

[5] = target: Voltage-gated inwardly rectifying potassium channel KCNH2 (Homo sapiens, UniProt Q12809); experiment: Inhibition of hERG; format: toxicity
Sequence of Voltage-gated inwardly rectifying potassium channel KCNH2 (Q12809 whole entry): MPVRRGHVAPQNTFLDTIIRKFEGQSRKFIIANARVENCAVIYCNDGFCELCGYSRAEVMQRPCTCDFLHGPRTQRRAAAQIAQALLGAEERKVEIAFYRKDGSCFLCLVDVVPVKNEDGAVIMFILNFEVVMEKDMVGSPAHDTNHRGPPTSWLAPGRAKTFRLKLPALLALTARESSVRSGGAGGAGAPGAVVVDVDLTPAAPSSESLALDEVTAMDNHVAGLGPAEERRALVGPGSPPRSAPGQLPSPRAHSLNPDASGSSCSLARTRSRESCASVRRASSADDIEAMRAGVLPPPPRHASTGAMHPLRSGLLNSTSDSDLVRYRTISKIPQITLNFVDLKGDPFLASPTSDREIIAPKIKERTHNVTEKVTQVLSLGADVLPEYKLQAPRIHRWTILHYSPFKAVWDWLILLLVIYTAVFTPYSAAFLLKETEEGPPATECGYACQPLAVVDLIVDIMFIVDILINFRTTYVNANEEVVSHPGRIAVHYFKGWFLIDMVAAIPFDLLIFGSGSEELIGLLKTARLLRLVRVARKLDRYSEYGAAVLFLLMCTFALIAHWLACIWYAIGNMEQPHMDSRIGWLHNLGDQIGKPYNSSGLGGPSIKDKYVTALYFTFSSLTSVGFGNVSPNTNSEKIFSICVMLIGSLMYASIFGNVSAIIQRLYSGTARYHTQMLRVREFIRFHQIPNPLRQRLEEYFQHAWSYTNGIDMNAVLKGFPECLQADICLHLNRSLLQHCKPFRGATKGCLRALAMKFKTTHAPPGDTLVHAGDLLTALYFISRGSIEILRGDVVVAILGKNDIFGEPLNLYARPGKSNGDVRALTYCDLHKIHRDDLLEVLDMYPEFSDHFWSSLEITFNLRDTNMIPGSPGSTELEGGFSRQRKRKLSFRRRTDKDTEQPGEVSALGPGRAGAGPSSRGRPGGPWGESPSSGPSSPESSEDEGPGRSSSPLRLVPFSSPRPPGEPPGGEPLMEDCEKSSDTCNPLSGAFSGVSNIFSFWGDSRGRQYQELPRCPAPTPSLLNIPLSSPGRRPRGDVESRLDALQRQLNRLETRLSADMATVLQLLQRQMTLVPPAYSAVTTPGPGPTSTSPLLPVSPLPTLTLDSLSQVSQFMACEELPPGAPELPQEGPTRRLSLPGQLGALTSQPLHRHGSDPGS

[6] = target: Sodium channel protein type 5 subunit alpha (Homo sapiens, UniProt Q14524); experiment: Inhibition of Nav1.5 (unknown origin)
Sequence of Sodium channel protein type 5 subunit alpha (Q14524 whole entry): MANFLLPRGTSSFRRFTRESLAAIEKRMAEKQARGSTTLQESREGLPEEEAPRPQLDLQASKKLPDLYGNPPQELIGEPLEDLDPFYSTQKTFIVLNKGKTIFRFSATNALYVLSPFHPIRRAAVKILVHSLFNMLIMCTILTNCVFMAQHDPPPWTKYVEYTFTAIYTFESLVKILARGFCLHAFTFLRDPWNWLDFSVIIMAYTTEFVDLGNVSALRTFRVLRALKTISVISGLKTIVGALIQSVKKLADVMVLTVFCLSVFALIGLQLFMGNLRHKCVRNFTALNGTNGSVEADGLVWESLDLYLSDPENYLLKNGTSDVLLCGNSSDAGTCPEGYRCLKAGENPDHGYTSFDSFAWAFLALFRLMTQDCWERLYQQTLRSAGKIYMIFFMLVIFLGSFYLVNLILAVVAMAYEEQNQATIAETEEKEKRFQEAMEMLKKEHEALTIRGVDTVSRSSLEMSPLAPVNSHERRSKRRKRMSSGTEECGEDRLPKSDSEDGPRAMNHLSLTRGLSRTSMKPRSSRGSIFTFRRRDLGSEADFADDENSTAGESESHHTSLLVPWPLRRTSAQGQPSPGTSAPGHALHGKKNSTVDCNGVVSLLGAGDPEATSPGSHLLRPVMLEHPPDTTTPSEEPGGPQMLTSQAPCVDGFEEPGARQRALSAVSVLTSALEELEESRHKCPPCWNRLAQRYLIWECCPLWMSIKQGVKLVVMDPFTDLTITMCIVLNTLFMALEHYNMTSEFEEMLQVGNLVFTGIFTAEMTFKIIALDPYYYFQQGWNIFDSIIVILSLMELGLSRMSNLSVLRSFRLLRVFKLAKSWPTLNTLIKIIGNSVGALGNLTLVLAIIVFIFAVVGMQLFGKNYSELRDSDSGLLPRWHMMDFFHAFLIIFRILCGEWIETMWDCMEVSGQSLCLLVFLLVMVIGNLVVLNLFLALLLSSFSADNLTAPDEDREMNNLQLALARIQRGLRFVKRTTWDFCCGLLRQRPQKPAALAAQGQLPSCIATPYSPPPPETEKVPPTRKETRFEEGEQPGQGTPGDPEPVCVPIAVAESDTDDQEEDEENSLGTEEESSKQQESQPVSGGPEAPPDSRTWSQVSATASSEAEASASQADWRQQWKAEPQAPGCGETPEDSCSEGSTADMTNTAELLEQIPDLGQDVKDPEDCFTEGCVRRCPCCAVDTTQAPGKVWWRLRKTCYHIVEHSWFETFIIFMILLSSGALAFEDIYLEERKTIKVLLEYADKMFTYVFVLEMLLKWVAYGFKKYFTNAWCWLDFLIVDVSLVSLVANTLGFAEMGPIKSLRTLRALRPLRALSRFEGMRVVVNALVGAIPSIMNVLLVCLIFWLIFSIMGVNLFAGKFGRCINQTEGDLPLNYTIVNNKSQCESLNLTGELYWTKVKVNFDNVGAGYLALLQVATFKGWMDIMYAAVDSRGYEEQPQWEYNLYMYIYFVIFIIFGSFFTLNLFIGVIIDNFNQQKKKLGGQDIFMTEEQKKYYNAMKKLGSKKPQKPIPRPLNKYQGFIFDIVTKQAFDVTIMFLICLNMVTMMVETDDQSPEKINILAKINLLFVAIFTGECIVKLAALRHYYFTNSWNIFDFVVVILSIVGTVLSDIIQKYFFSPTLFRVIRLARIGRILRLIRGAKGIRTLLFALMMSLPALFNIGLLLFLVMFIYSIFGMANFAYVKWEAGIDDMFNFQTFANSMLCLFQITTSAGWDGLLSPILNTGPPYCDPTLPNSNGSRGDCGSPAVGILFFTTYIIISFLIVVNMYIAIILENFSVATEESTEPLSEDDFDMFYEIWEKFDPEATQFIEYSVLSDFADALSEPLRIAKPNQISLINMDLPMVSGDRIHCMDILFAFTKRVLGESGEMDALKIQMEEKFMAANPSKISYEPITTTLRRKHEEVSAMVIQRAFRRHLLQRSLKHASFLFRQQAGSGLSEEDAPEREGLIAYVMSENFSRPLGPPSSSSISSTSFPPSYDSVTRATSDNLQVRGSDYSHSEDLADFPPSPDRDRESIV

[7] = Dissociation constant, pKa of the compound; format: physicochemical

O=c1n(CC(F)CN2C3CCC2CC(OCc2ccccc2F)C3)nc2n1CCC2 (stereo not drawn)
Papp [1]: 4.44 ×10⁻⁶ cm/s | solubility [2]: 79 µM (≈ 33.1 µg/mL) | solubility [3]: 82 µM (≈ 34.3 µg/mL) | remaining at 0.25 h [4]: 92.3% | efflux ratio (P-gp (ABCB1)): 2.52 | IC50 [5]: 22.2 µM | IC50 [6]: 13.4 µM

O=c1n(CC(F)CN2C3CCC2CC(OCc2ccccc2F)C3)nc2ccccn12 (stereo not drawn)
Papp [1]: 10.6 ×10⁻⁶ cm/s | solubility [2]: ≥ 100 µM | solubility [3]: 82 µM (≈ 35.1 µg/mL) | remaining at 0.25 h [4]: 66.9% | efflux ratio (P-gp (ABCB1)): 1.27 | IC50 [5]: 1.8 µM | IC50 [6]: 17.8 µM | pKa [7]: 8.1

O=c1n(CCCN2C3CCC2CC(OCc2ccccc2F)C3)nc2n1CCC2 (stereo not drawn)
Papp [1]: 1.62 ×10⁻⁶ cm/s | solubility [2]: ≥ 100 µM | solubility [3]: ≥ 100 µM | remaining at 0.25 h [4]: 95.8% | efflux ratio (P-gp (ABCB1)): 19.4 | IC50 [5]: 5.2 µM | IC50 [6]: 5.9 µM

O=c1n(CCCN2C3CCC2(F)CC(OCc2ccccc2F)C3)nc2ccccn12 (stereo not drawn)
Papp [1]: 10.6 ×10⁻⁶ cm/s | solubility [2]: ≥ 100 µM | solubility [3]: 73 µM (≈ 31.3 µg/mL) | remaining at 0.25 h [4]: 10.7% | efflux ratio (P-gp (ABCB1)): 0.96 | IC50 [5]: 7.6 µM | IC50 [6]: > 30 µM | pKa [7]: 5.4

O=c1n(CC(O)CN2C3CCC2CC(OCc2ccccc2F)C3)nc2n1CCC2 (stereo not drawn)
Papp [1]: 0.46 ×10⁻⁶ cm/s | solubility [2]: ≥ 100 µM | solubility [3]: 94 µM (≈ 39.2 µg/mL) | remaining at 0.25 h [4]: 99.8% | efflux ratio (P-gp (ABCB1)): 9.16 | IC50 [5]: 19.7 µM | IC50 [6]: 12.9 µM

O=c1n(CCCN2C3CCC2CC(COc2ccccc2F)C3)nc2ccccn12 (stereo not drawn)
Papp [1]: 4.86 ×10⁻⁶ cm/s | solubility [2]: ≥ 100 µM | solubility [3]: 95 µM (≈ 39 µg/mL) | remaining at 0.25 h [4]: 45.6% | efflux ratio (P-gp (ABCB1)): 3.07 | IC50 [5]: 0.07 µM | IC50 [6]: 6 µM

O=c1n(CC(O)CN2C3CCC2CC(OCc2ccccc2F)C3)nc2ccccn12 (stereo not drawn)
Papp [1]: 2.16 ×10⁻⁶ cm/s | solubility [2]: ≥ 100 µM | solubility [3]: 95 µM (≈ 40.5 µg/mL) | remaining at 0.25 h [4]: 82% | efflux ratio (P-gp (ABCB1)): 6.36 | IC50 [5]: 1.2 µM | IC50 [6]: 11.9 µM

O=c1n(CCCN2C3CCC2(F)CC(OCc2ccccc2F)C3)nc2n1CCC2 (stereo not drawn)
Papp [1]: 7.78 ×10⁻⁶ cm/s | solubility [2]: ≥ 100 µM | solubility [3]: 96 µM (≈ 40.2 µg/mL) | remaining at 0.25 h [4]: 31.8% | efflux ratio (P-gp (ABCB1)): 1.39 | IC50 [5]: > 30 µM | IC50 [6]: > 30 µM

O=c1n(CCCN2C3CCC2CC(OCc2ccccc2F)C3)nc2ccccn12 (stereo not drawn)
Papp [1]: 4.93 ×10⁻⁶ cm/s | solubility [2]: ≥ 100 µM | solubility [3]: 99 µM (≈ 40.6 µg/mL) | remaining at 0.25 h [4]: 70.9% | efflux ratio (P-gp (ABCB1)): 3.39 | IC50 [5]: 0.11 µM | IC50 [6]: 3 µM | pKa [7]: 8.7

O=c1n(CCCN2C3CCC2(F)CC(COc2ccccc2F)C3)nc2ccccn12 (racemic)
Papp [1]: 11.1 ×10⁻⁶ cm/s | solubility [2]: ≥ 100 µM | solubility [3]: 61 µM (≈ 26.1 µg/mL) | remaining at 0.25 h [4]: 34.7% | efflux ratio (P-gp (ABCB1)): 1.34 | IC50 [5]: > 30 µM | IC50 [6]: > 30 µM
